Data published in patent US6924302B2, “Substituted triazole diamine derivatives as kinase inhibitors” (Ortho McNeil Pharmaceutical, Inc., priority 2000, dated 2005).
Read-outs that look alike come from different tables or passages of the source.

Columns and labels:
[1] = target: T1, PDGF-R (platelet derived growth factor receptor) beta subunit kinase domain (Homo sapiens, UniProt P09619); assay: Kinase Selectivity Assay PDGF-R; format: biochemical; details: Kinase Selectivity, Tables 2a-2k; read-out: PDGF-R kinase IC50
T1 construct: nucleotides 1874-3507 of the human PDGF-R beta subunit kinase domain; polyhistidine (N)
T1 sequence (P09619 564-1106): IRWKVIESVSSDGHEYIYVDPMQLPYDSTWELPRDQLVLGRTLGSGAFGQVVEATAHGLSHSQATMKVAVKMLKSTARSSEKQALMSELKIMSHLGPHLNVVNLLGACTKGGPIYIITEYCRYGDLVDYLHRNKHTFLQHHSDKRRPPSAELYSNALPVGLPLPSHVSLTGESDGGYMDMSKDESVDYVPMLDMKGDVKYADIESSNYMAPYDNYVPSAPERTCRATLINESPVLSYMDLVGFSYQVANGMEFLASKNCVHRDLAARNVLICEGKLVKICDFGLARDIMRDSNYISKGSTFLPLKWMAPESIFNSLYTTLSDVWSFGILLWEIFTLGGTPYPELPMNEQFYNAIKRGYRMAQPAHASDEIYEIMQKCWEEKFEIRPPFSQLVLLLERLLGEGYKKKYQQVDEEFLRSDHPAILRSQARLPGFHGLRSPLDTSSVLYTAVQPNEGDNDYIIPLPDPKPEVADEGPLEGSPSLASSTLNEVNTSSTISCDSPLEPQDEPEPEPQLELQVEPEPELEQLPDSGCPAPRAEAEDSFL
Outline: (§1)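 Reactions ran one hour at 30° C in 1% DMSO with enzyme diluted in 50 mM Tris-HCl pH 8.0, 0.1% BSA. Scintillation counting read ^33P incorporated into immobilized biotinylated peptide.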

[2] = target: T2, Casein Kinase 2 (alpha and beta subunits) (Homo sapiens, UniProt P68400); assay: Kinase Selectivity Assay Casein Kinase 2; format: biochemical; details: Kinase Selectivity, Tables 2a-2k; read-out: Caseine Kinase 2 IC50
T2 construct: purchased New England Biolabs 6010; host or cells: E. coli
T2 sequence (P68400 whole entry): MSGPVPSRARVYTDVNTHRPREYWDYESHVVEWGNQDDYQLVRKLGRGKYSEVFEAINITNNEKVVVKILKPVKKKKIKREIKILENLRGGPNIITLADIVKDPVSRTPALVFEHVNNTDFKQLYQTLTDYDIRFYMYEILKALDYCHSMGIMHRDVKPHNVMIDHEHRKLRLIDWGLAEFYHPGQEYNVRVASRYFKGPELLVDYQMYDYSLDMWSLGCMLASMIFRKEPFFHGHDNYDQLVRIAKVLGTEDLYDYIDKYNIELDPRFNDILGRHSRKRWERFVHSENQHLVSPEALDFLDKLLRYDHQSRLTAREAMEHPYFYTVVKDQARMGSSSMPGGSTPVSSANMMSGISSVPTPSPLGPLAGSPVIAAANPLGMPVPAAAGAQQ
T2 sequence (P67870 whole entry partner): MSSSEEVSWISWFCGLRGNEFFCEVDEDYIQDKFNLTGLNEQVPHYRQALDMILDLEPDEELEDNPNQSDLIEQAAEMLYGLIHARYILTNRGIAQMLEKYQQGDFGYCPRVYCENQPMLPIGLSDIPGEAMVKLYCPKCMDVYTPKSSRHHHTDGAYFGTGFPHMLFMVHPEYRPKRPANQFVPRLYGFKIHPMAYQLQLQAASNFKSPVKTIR
Outline: as §1

[3] = target: T3, Glycogen Synthase Kinase-3 (beta isoform) (Oryctolagus cuniculus, UniProt G1T8E2); assay: Kinase Selectivity Assay Glycogen Synthase Kinase-3; format: biochemical, rabbit
T3 construct: purchased New England Biolabs 6040; host or cells: E. coli
T3 sequence (G1T8E2 1-432): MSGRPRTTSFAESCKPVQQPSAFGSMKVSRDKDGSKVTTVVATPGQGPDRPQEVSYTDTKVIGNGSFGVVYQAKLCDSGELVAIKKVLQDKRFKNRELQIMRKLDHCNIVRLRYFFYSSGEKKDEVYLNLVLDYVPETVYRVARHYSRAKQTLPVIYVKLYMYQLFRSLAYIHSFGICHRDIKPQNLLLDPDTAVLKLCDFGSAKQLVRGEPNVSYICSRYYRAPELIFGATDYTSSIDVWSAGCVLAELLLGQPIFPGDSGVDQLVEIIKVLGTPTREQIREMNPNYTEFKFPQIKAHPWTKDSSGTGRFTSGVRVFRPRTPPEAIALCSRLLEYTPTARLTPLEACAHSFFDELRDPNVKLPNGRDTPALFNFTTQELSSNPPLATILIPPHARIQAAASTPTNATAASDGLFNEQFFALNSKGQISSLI
Outline: as §1

[4] = target: T4, Casein Kinase 1 (CK1 delta isoform) (Rattus norvegicus, UniProt Q06486); assay: Kinase Selectivity Assay Casein Kinase 1; format: biochemical; details: Tables 2a-2k, read-out: Caseine Kinase 1 IC50
T4 construct: a truncation at amino acid 318 of the C-terminal portion of the rat CK1 delta isoform; purchased New England Biolabs 6030; host or cells: E. coli
T4 sequence (Q06486 1-317): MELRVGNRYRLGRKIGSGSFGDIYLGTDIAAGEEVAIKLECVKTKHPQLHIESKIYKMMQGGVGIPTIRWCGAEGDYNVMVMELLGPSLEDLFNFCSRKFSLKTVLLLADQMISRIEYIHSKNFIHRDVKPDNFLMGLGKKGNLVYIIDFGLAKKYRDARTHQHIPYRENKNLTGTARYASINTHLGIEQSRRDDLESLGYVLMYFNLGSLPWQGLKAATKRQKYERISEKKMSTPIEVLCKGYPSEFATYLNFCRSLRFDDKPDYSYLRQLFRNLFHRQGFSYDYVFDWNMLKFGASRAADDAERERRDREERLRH
Outline: as §1

CDK1:Cyclin-B = target: T5, CDK1:Cyclin-B (Homo sapiens, UniProt P06493); assay: CDK1 Screening Assay; format: biochemical; details: read-out: CDK1 IC50
T5 construct: purchased New England Biolabs 6020; host or cells: insect cells
T5 sequence (P06493 whole entry): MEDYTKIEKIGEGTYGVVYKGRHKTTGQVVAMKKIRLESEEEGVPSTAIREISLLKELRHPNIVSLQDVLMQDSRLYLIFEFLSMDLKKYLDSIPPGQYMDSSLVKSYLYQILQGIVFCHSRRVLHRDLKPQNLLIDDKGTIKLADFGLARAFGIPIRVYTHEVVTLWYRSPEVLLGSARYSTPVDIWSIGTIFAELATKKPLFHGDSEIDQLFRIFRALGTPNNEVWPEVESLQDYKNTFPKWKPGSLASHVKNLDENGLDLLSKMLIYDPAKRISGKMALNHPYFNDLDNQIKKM
T5 sequence (P14635 whole entry partner): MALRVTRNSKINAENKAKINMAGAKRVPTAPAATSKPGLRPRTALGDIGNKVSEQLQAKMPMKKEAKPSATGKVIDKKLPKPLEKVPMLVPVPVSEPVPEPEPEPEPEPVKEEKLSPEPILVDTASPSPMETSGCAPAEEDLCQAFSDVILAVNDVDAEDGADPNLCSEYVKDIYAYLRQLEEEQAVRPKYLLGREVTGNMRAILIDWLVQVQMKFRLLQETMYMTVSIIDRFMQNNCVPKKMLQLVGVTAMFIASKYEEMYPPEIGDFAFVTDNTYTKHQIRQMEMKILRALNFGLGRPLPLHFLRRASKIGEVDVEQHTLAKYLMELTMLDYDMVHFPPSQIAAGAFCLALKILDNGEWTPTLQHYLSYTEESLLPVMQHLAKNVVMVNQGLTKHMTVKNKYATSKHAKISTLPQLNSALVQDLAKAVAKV
Outline: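 Human CDK1:cyclin-B (30 ng/well) with biotinylated histone-H1 peptide and ^33P-γ-ATP, 1 h at 30° C, 1% DMSO, on streptavidin FlashPlate; incorporation read by scintillation.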

[5] = Kinase Selectivity, Tables 2a-2k, read-out: GSK-3 IC50
[6] = Kinase Selectivity, Tables 2a-2k

| Compound | IC50 [1] [nM] | IC50 [2] [nM] | IC50 [3, 5] [nM] | IC50 [4] [nM] | IC50 (CDK1:Cyclin-B; [6]) [nM] | IC50 (CDK1:Cyclin-B; Table 1) [nM] | IC50 [3] [nM] |
| --- | --- | --- | --- | --- | --- | --- | --- |
| CNS(=O)(=O)c1ccc(Nc2nc(N)n(C(=O)c3c(F)ccc(C)c3F)n2)cc1 [Cpd 81, 4-[[5-amino-1-(2,6-difluoro-3-methylbenzoyl)-1H-1,2,4-triazol-3-yl]amino]-N-methyl-benzenesulfonamide] | 7760 | > 100000 | 49 | 6960 |  |  |  |
| Nc1nc(Nc2ccc(S(N)(=O)=O)cc2)nn1C(=O)C1CCCCC1 [Cpd 39, 4-[[5-amino-1-(cyclohexylcarbonyl)-1H-1,2,4-triazol-3-yl]amino]-benzenesulfonamide] | 3980 | > 100000 | 127 | 4100 |  |  |  |
| CN1CCN(c2ccc(Nc3nc(N)n(C(=O)c4c(F)cccc4F)n3)cc2)CC1 [Cpd 71, 1-(2,6-difluorobenzoyl)-N^3-[4-(4-methyl-1-piperazinyl)phenyl]-1H-1,2,4-triazole-3,5-diamine] | 27000 | > 100000 | 1720 | > 100000 | 3710 | 3710 |  |
| Cc1nc(C)c(C(=O)n2nc(Nc3ccc(S(N)(=O)=O)cc3)nc2N)s1 [Cpd 34, 4-[[5-amino-1-[(2,4-dimethyl-5-thiazolyl)carbonyl]-1H-1,2,4-triazol-3-yl]amino]-benzenesulfonamide] | 292 | > 100000 | 15 | 182 | 2 | 1.6 |  |
| Nc1nc(Nc2ccc(N3CCCS3(=O)=O)cc2)nn1C(=O)c1c(F)cccc1F [Cpd 117] | > 100000 | > 100000 | 1040 | 13500 |  |  |  |
| Nc1nc(Nc2ccc(S(=O)(=O)N3CCCCC3)cc2)nn1C(=O)c1cccs1 [Cpd 23, N^3-[4-(1-piperidinylsulfonyl)phenyl]-1-(2-thienylcarbonyl)-1H-1,2,4-triazole-3,5-diamine] | 629 | > 100000 | 16 | 113 | 89 | 88.9 |  |
| CCc1ccc(C(=O)n2nc(Nc3ccc(S(=O)(=O)NCCN(C)C)cc3)nc2N)s1 [Cpd 103, 4-[[5-amino-1-[(5-ethyl-2-thienyl)carbonyl]-1H-1,2,4-triazol-3-yl]amino]-N-[2-(dimethylamino)ethyl]-benzenesulfonamide] | 702 | 5300 | 13 | 322 | 7 | 7.4 |  |
| Nc1nc(Nc2ccc(S(N)(=O)=O)cc2)nn1C(=O)c1c(F)cccc1Cl [Cpd 70, 4-[[5-amino-1-(2-chloro-6-fluorobenzoyl)-1H-1,2,4-triazol-3-yl]amino]-benzenesulfonamide] | 16200 | > 100000 | 220 | 35700 | 35 | 35 |  |
| Cc1ccc(F)c(C(=O)n2nc(Nc3ccc(S(N)(=O)=O)cc3)nc2N)c1Cl [Cpd 69, 4-[[5-amino-1-(2-chloro-6-fluoro-3-methylbenzoyl)-1H-1,2,4-triazol-3-yl]amino]-benzenesulfonamide] | 100 | > 100000 | 147 | 16600 | 23 | 23 |  |
| Nc1nc(Nc2ccc(S(N)(=O)=O)cc2)nn1C(=O)c1sccc1Cl [Cpd 17, 4-[[5-amino-1-[(3-chloro-2-thienyl)carbonyl]-1H-1,2,4-triazol-3-yl]amino]-benzenesulfonamide] | 81 | 2650 | 9 | 643 | 2.5 | 2.5 |  |
| Nc1nc(Nc2ccc(S(N)(=O)=O)cc2)nn1C(=O)c1ccsc1 [Cpd 30, 4-[[5-amino-1-(3-thienylcarbonyl)-1H-1,2,4-triazol-3-yl]amino]-benzenesulfonamide] | 392 | 7600 | 14 | 1540 | 17 | 17 |  |
| Nc1nc(Nc2ccc(S(N)(=O)=O)cc2)nn1C(=O)c1sccc1F [Cpd 16, 4-[[5-amino-1-[(3-fluoro-2-thienyl)carbonyl]-1H-1,2,4-triazol-3-yl]amino]-benzenesulfonamide] | 100 | > 100000 | 4 | 214 | 21 | 2.1 |  |
| CC(O)c1ccc(F)c(C(=O)n2nc(Nc3ccc(S(N)(=O)=O)cc3)nc2N)c1F (stereo not shown) [Cpd 58, 4-[[5-amino-1-[2,6-difluoro-3-(1-hydroxyethyl)benzoyl]-1H-1,2,4-triazol-3-yl]amino]-benzenesulfonamide] | 8530 | > 100000 | 15 | 11200 | 14 | 14 |  |
| Nc1nc(Nc2ccc(S(=O)(=O)Nc3ccccn3)cc2)nn1C(=O)c1c(F)cccc1F [Cpd 118, 4-[[5-amino-1-(2,6-difluorobenzoyl)-1H-1,2,4-triazol-3-yl]amino]-N-(2-pyridinyl)-benzenesulfonamide] | > 100000 | > 100000 | 159 | > 100000 | 330 | 330 |  |
| Cc1cc(C)c(C(=O)n2nc(Nc3ccc(NS(C)(=O)=O)cc3)nc2N)s1 [Cpd 108, N-[4-[[5-amino-1-[(3,5-dimethyl-2-thienyl)carbonyl]-1H-1,2,4-triazol-3-5 yl]amino]phenyl]-methanesulfonamide] | 217 | > 10000 | 23 | 816 | 66 | 65.7 |  |
| Nc1nc(Nc2ccc(S(N)(=O)=O)cc2)nn1C(=O)C1CCCC1 [Cpd 38, 4-[[5-amino-1-(cyclopentylcarbonyl)-1H-1,2,4-triazol-3-yl]amino]-benzenesulfonamide] | 6370 | > 100000 | 122 | 6100 |  |  |  |
| Cc1cc(C)c(C(=O)n2nc(Nc3ccc(S(=O)(=O)Nc4ccccn4)cc3)nc2N)s1 [Cpd 120] | 822 | > 100000 | 18 | > 10000 | 277 | 277 |  |
| Nc1nc(Nc2ccc(S(N)(=O)=O)cc2)nn1C(=O)c1sccc1Br [Cpd 35, 4-[[5-amino-1-[(3-bromo-2-thienyl)carbonyl]-1H-1,2,4-triazol-3-yl]amino]-benzenesulfonamide] |  |  |  |  |  | 1.1 |  |
| CCc1ccc(C(=O)n2nc(Nc3ccc(S(N)(=O)=O)cc3)nc2N)s1 [Cpd 32, 4-[[5-amino-1-[(5-ethyl-2-thienyl)carbonyl]-1H-1,2,4-triazol-3-yl]amino]-benzenesulfonamide] | 74 | 527 | 3 | 181 | 3 | 3.1 |  |
| CCc1ccc(C(=O)n2nc(Nc3ccc(S(=O)(=O)NC)cc3)nc2N)s1 [Cpd 84, 4-[[5-amino-1-[(5-ethyl-2-thienyl)carbonyl]-1H-1,2,4-triazol-3-yl]amino]-N-methyl-benzenesulfonamide] | 280 | 1670 | 19 | 188 | 4 | 3.8 |  |
| Nc1nc(Nc2ccc(S(N)(=O)=O)cc2)nn1C(=O)c1cccs1 [Cpd 14, 4-[[5-amino-1-(2-thienylcarbonyl)-1H-1,2,4-triazol-3-yl]amino]-benzenesulfonamide] | 189 | 8050 | 3 | 348 | 4.5 | 4.5 |  |
| Nc1nc(Nc2ccc(S(N)(=O)=O)cc2)nn1C(=O)c1c(F)cccc1F [Cpd 1, 4-[[5-amino-1-(2,6-difluorobenzoyl)-1H-1,2,4-triazol-3-yl]amino]-benzenesulfonamide] |  | > 100000 |  |  | 6 | 6.4 | 41 |
| Cc1ccccc1C(=O)n1nc(Nc2ccc(S(N)(=O)=O)cc2)nc1N [Cpd 57, 4-[[5-amino-1-(2-methylbenzoyl)-1H-1,2,4-triazol-3-yl]amino]-benzenesulfonamide] | 4190 | > 100000 | 98 | 14000 | 67 | 67 |  |
| CNS(=O)(=O)c1ccc(Nc2nc(N)n(C(=O)c3c(F)cccc3F)n2)cc1 [Cpd 80, 4-[[5-amino-1-(2,6-difluorobenzoyl)-1H-1,2,4-triazol-3-yl]amino]-N-methyl-benzenesulfonamide] |  |  |  |  |  | 45.2 |  |
